This is an account of results in article PMC12064818, “A general assay platform to study protein pharmacology using ligand-dependent structural dynamics” (Nature Communications, 2025).

Where “and” joins values, the source holds several entries; their conditions need not be identical. Equal values may be shown once.

One assay has as its target B. malayi iPGM-C-HiBiT (Brugia malayi, UniProt Q4VWF8). As to the kind of experiment: iPGM coupled-enzyme assay, B. malayi iPGM-C-HiBiT. The assay is classed as biochemical. On the set-up: cDNA, containing Ala2-Glu515 and the 6xHis tag; His6 (C); made in house; host or cells: E. coli. The following applies: B. malayi iPGM-C-HiBiT Std 5 nM; ligand […] Std. Here is the method: The enzyme activity of C. elegans or B. malayi iPGM-C-HiBiT was measured using the functional coupled-enzyme luminescence end-point output assay for iPGM as previously described[16],[41],[68]. Briefly, the indicated concentration of 4 μL of iPGM-C-HiBiT was dispensed into 1536-well white, high solid base, medium bind plates in a pH 8.0 iPGM assay buffer (30 mM Tris-HCl, 5 mM magnesium sulfate, 20 mM potassium chloride and 0.08% BSA) with the BioRaptr 2. Compounds and controls were added to each plate with a pintool as described in Supplementary Data 8. Enzymes were incubated with peptide for > 20 min at ambient temperature, protected from light. […] Enzyme was at 5 nM final concentration for the standard assay with an estimated KM 3-phosphoglycerate (3PG) substrate concentration of 400 μM. Plates were incubated at ambient temperature for 10 min, protected from light, then measured by a ViewLux plate reader. […] See Supplementary Table 6 for additional details.
Supplementary Table 6. Protocol for Co- factor independent phosphoglycerate mutase (iPGM) coupled-enzyme assay
Supplementary Table 6: Protocol for Co-factor independent phosphoglycerate m utase (iPGM) coupled- enzym e assay […]
No enzym e control (colum n 1) and enzym e solutions (5 nM Bm iPGM-C-HiBiT or Ce iPGM-1 Reagent 4 µLC-HiBiT dialyzed against Zn/Mn final assay concentration) in PGM enzym e buffer; white/solid bottom , m edium bind, high base plates (Greiner), dispensed with BioRaptr 2 […]
in 8-pt 1:6 titration series in duplicate); com pounds transferred to respective colum ns with […]
Test com pounds: m acrocyclic peptides at 5 m M stock concentration in 16-pt, 1:3 titration […]
transferred to respective colum ns with Pintool
3 Incubation 20 m inIncubate enzym e + com pounds at am bient tem p for 20 m in, protected from light 4 Reagent 2 µLSubstrate solution; 0.4 m M final concentration 3PG in coupled-enzym e substrate buffer; dispensed with BioRaptr 2
5 Incubation 5 m inAm bient tem perature, protected from light
6 Reagent 4 µLKinase-Glo Plus reagent (Prom ega) prepared according to m anufacturer’s protocol;
7 Incubation 10 m inRoom tem perature, protected from light
8 Detector ViewLuxRead plate lum inescence (Exposure = 1 sec; Gain = Medium; Speed = Slow; Binning = 2X) […]
in 20% glycerol); Bm iPGM-C-HiBiT enzym e 10 µM stock solution in 20% glycerol.
Coupled-enzym e substrate solution: 30 m M Tris-HCl, pH 8.0; 5 m M MgSO4; 20 m M KCl; 9 m M ADP (3 m M final); 0.1 4 units/µl enolase (Millipore Sigm a, Cat# E6126); 0.15 units/µl pyruvate kinase (from rabbit m uscle, Millipore Sigm a, Cat #
A general note: With HiBiT, luminescence reflects the tagged protein that the partner subunit can reach.

For assay [1], the target named is T1, T7 Lig-C-HiBiT (DNA ligase) (Escherichia phage T7, UniProt P00969).
T1 sequence (P00969 2-359): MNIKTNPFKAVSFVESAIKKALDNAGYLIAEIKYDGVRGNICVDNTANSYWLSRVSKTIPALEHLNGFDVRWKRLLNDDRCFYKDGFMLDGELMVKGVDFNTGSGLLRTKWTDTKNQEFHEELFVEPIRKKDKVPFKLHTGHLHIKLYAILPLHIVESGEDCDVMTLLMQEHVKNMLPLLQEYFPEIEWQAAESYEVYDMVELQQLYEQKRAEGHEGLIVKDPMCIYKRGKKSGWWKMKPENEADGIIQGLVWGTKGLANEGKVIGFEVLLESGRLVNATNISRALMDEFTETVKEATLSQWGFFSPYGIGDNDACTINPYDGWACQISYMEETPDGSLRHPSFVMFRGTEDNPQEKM
Kind of assay: SDR assay (aqueous ligand dispense), T7 Lig-C-HiBiT. As to conditions: for SDR assay data: 1 nM T7 Lig-C-HiBiT; for SDR assay data / SDR response: Log [ATP]; for SDR response: replicates.

The mark [2] stands for this setting: T7 Lig-C-HiBiT (1 nM), ligand 100 µM.

For orientation: EC50 means the concentration giving half of the maximal effect. A low value points to greater potency.

Chain of B. malayi iPGM-C-HiBiT (Q4VWF8 2-515): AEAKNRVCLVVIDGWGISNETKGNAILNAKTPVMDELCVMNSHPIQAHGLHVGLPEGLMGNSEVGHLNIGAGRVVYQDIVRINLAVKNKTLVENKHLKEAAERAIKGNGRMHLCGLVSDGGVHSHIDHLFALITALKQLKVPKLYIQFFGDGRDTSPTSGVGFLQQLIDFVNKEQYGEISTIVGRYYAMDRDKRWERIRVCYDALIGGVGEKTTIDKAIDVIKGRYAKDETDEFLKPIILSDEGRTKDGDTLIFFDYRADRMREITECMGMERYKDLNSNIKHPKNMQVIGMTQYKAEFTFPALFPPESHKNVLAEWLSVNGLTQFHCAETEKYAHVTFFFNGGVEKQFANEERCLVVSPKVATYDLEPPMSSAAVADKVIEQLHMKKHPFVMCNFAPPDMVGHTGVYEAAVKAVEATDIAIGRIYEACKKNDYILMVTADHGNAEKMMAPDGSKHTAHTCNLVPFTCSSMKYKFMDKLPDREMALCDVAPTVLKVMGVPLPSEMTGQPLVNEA

Regarding `CC(C)C[C@H](NC(=O)[C@H](Cc1ccc(O)cc1)NC(=O)[C@@H]1CSCC(=O)N[C@H](Cc2ccc(O)cc2)C(=O)N[C@@H](CC(=O)O)C(=O)N[C@@H](Cc2ccc(O)cc2)C(=O)N2CCC[C@H]2C(=O)NCC(=O)N[C@@H](CC(=O)O)C(=O)N[C@@H](Cc2ccc(O)cc2)C(=O)N1)C(=O)N[C@@H](Cc1ccc(O)cc1)C(=O)NCC(=O)N[C@H](C(=O)N[C@@H](CS)C(=O)NCC(N)=O)[C@@H](C)O` [Ce-2], at B. malayi iPGM-C-HiBiT, the “Standard assay statistics Ave RLU” value is 4115.8 RLU, the “Standard assay statistics S:B” value worked out at 1.7, the “Standard assay statistics S:N” value is recorded as -6.9 and the “Standard assay statistics Z’” value worked out at 0.521.

`Nc1ncnc2c1ncn2[C@@H]1O[C@H](COP(=O)(O)OP(=O)(O)OP(=O)(O)O)[C@@H](O)[C@H]1O` [ATP] gave an EC50 in assay [1] of at least 100 µM. Also, the SDR assay data in assay [1] (M -2.85) is 216.5 and 209.6 and 219.5; in assay [1] (M -3.15) it was 141.4 and 163.1 and 159.6; in assay [1] (M -3.45), 83.0 and 105.1 and 112.1; in assay [1] (M -3.75) it was 54.1 and 71.7 and 73.7; in assay [1] (M -4.35), 22.4 and 27.8 and 30.1; in assay [1] (M -4.65) it was 18.5 and 22.1 and 22.3. For the same molecule, the SDR assay data in assay [1] (M -4.95) was 14.4 and 13.8; in assay [1] (M -5.25), 9.3 and 8.9; in assay [1] (M -5.55), 9.2 and 6.3; in assay [1] (M -6.16), 7.3 and 4.5; in assay [1] (M -6.46), 6.2 and 3.9 and 5.5. Besides, the SDR response in assay [1] (M -2.85) is 216.5 and 209.6 and 219.5; in assay [1] (M -3.15) it was 141.4 and 163.1 and 159.6; in assay [1] (M -3.45), 83.0 and 105.1 and 112.1; in assay [1] (M -3.75), 54.1 and 71.7 and 73.7; in assay [1] (M -4.05), 18.5 and 46.9 and 44.7; in assay [1] (M -4.35), 22.4 and 27.8 and 30.1. Also, the SDR response is 18.5 and 22.1 and 22.3 in assay [1] (M -4.65); 14.4 and 13.8 in assay [1] (M -4.95); 9.3 and 8.9 in assay [1] (M -5.25); 9.2 and 6.3 in assay [1] (M -5.55); 6.9 and 3.3 and 6.8 in assay [1] (M -5.86); 7.3 and 4.5 in assay [1] (M -6.16). Besides, the SDR response in assay [1] (M -6.46) was 6.2 and 3.9 and 5.5; in assay [1] (M -6.76), 4.6 and 1.8 and 4.9. Besides, the “SDR assay response (in words)” value in assay [1] (T7 Lig-C-HiBiT) is given as “strong SDR signal”. Also, the “SDR assay statistics Ave RLU” value in assay [1] (setting [2]) turned out to be 70.8 RLU. Further, the “SDR assay statistics S:B” value in assay [1] (setting [2]) amounted to 1.4. Besides, the “SDR assay statistics Z’” value in assay [1] (setting [2]) is -0.186. In assay [1] (T7 Lig-C-HiBiT, maximum response), this molecule registered a max resp of 215.2.
